Measurements: US6461833B1, “Method to detect bacteria” (priority 1995, dated 2002)
Read-outs that look alike come from different tables or passages of the source.

Key:
Mycobacterium smegmatis = type: cell-based; details: for number of plaques observed: 72 hours incubation with drug, M. smegmatis
BCG = type: cell-based, M. tuberculosis; details: for number of plaques observed: 72 hours incubation with drug, M. tuberculosis
[1] = Rifampicin concentration 10 μg/ml
[2] = Rifampicin concentration 50 μg/ml
[3] = Rifampicin concentration 100 μg/ml
[4] = Isoniazid concentration 0.1 μg/ml
[5] = Isoniazid concentration 1.0 μg/ml
[6] = Isoniazid concentration 10 μg/ml

| Compound | number of plaques observed (Mycobacterium smegmatis; [1]) | number of plaques observed (Mycobacterium smegmatis; [2]) | number of plaques observed (Mycobacterium smegmatis; [3]) | number of plaques observed (BCG; [1]) | number of plaques observed (BCG; [2]) | number of plaques observed (BCG; [3]) | number of plaques observed (Mycobacterium smegmatis; [4]) | number of plaques observed (Mycobacterium smegmatis; [5]) | number of plaques observed (Mycobacterium smegmatis; [6]) | effect on cells judged from numbers of plaques (Mycobacterium smegmatis; isoniazid, all concentrations, only a slight reduction at the highest concentration) | number of plaques observed (BCG; [4]) | number of plaques observed (BCG; [5]) | number of plaques observed (BCG; [6]) | change in numbers of plaques (BCG; higher concentrations of isoniazid) | effect on cells judged from number of plaques versus no drug controls (BCG; lowest concentration of isoniazid) |
| --- | --- | --- | --- | --- | --- | --- | --- | --- | --- | --- | --- | --- | --- | --- | --- |
| CO[C@H]1/C=C/O[C@@]2(C)Oc3c(C)c(O)c4c(O)c(c(/C=N/N5CCN(C)CC5)c(O)c4c3C2=O)NC(=O)/C(C)=C\C=C\[C@H](C)[C@H](O)[C@@H](C)[C@@H](O)[C@@H](C)[C@H](OC(C)=O)[C@@H]1C [Rifampicin, rifampicin] | ++ | 50 | 8 | 4 | 4 | 10 | – | – | – | – | – | – | – | – | – |
| NNC(=O)c1ccncc1 [Isoniazid, isoniazid] | – | – | – | – | – | – | ++ | ++ | + | mostly unaffected | 122 | 40 | 2 | marked reduction in the numbers of plaques | unaffected |
